In patent US20140249573A1, “METHODS AND DEVICES FOR OCCLUDING BLOOD FLOW TO AN ORGAN” (A.A. CASH TECHNOLOGY LTD., priority 2011, published 2014):
“And” between values parts separate entries of the source, which are not always exact repeats. Identical values can stand only once.

Key:
ovary = conditions: eight days after treatment
Experimental: (§1) The protocol and design of all parts of this study were approved by the Animal Research Ethics Committee of Israel. Three female pigs (The Institute of Animal Research, Kibbutz Lahav, Israel) weighing 60 Kg each, were anesthetized with 10 mg/kg intramuscular ketamine hydrochloride and 4 mg/kg xylazine hydrochloride (Vetmarket, Israel). One ovary of each pig was exposed by a longitudinal midline incision. A conventional gastric band (Lap-band; Allergen, Irvine, Calif., USA) was modified according to some embodiments of the invention, to occlude blood flow to the ovaries. The band was wound around the ovarian hilum, and a zip tie was placed on the center of the band ring to reduce the diameter of the band's aperture. 10 ml saline was injected via the band's port thus completely blocking blood flow through the ovarian and uterine arteries and veins. The color and the morphology of the ovary were observed after occlusion of blood flow as well as after the bands were released. The other ovary in each pig was left unprotected (i.e. was left with natural blood flow, and thus completely exposed to chemotherapy). Heparin was administered intravenously before occlusion to prevent or reduce blood coagulation within the ovary throughout the occlusion time interval and a few hours thereafter. A control pig was left untreated.
The ovaries blood supply was occluded for 16 hours after the drug administration interval (i.e. a total occlusion time interval exceeding 17 hours). The bands were then opened by drawing out the 10 ml of saline via the port.
Eight days after the chemo treatment the pigs were euthanized according to animal ethics procedures and the ovaries were removed and examined visually, removed, weighed and follicles were counted.

lymphocyte = conditions: three female pigs, 60 mg/kg IV over 1 hour, the following day
Experimental: as §1, with “untreated. […]” for “untreated.”

Question: What does the source list for `O=P1(N(CCCl)CCCl)NCCCO1` (stereo not shown) [Cyclophosphamide]?
Answer: size and number of follicles of occluded (protected) ovaries (ovary; all ovaries occluded during chemotherapy administration): comparable to the control animal; Weight of ovary, Occluded (ovary; ovary with blood supply occluded by band for more than 17 hours, 60 mg/kg IV over 1 hour, one value per pig, 60 mg/kg): 3.6 gr and 3.8 gr and 5.2 gr; visual appearance of unprotected ovaries (ovary; unprotected ovaries, in two of the three animals): visible signs of atrophy; lymphocyte counts, decreased to % of the initial level (lymphocyte): 12%
